Results from article PMC4747340, “A new class of small molecule estrogen receptor-alpha antagonists that overcome anti-estrogen resistance” (Oncotarget, 2015).
Counter-ions that a name gives are not always drawn. Like-named read-outs stand apart in the source and are kept apart here. One block for each compound: values may come before it.

Key:
LCC9 cells = experiment: cell proliferation assay (cell counts days 1, 3, 5), LCC9; assay type: cell-based, human; conditions: DMEM + 5% charcoal-stripped serum, up to 5 days; 4631-P/1 at 1 μM
Experimental: Starting on day 1, cells were refed daily with fresh medium (DMEM plus 5% CSS) containing the indicated agent. In panel F, the cells were refed with medium also containing ER-siRNA or control-siRNA (100 nM) at the indicated times. Wells were counted on days 1, 3, and 5 to determine cell numbers. Values are means ± SEMs of triplicate wells. The data shown in each panel are representative of three independent experiments.
Assays were performed using as the growth medium phenol red-free DMEM containing 5% charcoal-stripped serum. Briefly, proliferating cells were harvested using trypsin, counted, inoculated into 12-well dishes at 1 × 10^4 cells per well on day 0 and allowed to attach and recover for 24 hr. The cells were then treated with the indicated agents for up to five days, with daily refeeding with fresh medium and agents. Triplicate wells were counted by Coulter Counter on days 1, 3, and 5. For experiments using siRNAs, cells were treated with the indicated siRNA (100 nM) starting on day -2, and fresh siRNA was added on days 0, 2, and 4.

[1] = target: T1, estrogen receptor-alpha (ER) (Homo sapiens, UniProt P03372); experiment: constitutive ER activity, ERE-TK-Luc reporter, in anti-estrogen resistant LCC9 cells; assay type: cell-based; design: LCC9 cells in 24-well dishes were transfected overnight with the ERE-TK-Luc reporter plasmid; endogenous in cells; host or cells: LCC9; conditions: LCC9, no E2, 24 hr; read-out: IC50 for inhibition of ER activity in LCC9
T1 sequence (P03372 1-595): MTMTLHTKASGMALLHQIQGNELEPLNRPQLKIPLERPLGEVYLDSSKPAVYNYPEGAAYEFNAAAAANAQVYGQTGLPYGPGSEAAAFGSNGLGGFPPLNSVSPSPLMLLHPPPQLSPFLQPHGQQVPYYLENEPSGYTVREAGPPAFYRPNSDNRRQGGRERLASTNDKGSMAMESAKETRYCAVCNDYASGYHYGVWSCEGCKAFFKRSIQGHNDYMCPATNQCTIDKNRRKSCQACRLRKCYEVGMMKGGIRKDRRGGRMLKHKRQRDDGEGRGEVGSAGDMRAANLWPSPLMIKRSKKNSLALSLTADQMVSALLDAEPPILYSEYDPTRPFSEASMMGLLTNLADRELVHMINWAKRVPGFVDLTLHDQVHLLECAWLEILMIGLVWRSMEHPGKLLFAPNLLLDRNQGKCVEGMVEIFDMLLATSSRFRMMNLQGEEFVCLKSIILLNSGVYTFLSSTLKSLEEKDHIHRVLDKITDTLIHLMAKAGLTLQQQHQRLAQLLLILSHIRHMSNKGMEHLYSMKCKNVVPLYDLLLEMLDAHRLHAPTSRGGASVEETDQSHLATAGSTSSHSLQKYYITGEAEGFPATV
Experimental: (§1) For MCF-7, luciferase activity is expressed as a fold-change relative to the no E2 control. For LCC9, luciferase activity is expressed relative to the control without the reporter present. Values plotted are means ± SEMs of four replicate wells. The data shown in each panel are representative of three independent experiments.
The cells were then treated with the indicated concentrations of the six bioactive compounds or vehicle only (DMSO) for 24-hr and assayed for luciferase activity. Luciferase activity is expressed as a percentage of the DMSO control. Values are means ± SEMs of four replicate wells. The data shown in each panel are representative of three independent experiments.
The cells were then harvested for luciferase assays. Luciferase activity was expressed as a fold-change relative to the no reporter control. Values plotted are means ± SEMs of four replicate wells. The data shown are representative of three independent experiments.
(§2) Subconfluent cells in 24-well dishes were transfected overnight with 0.25 μg of each indicated vector plus the ERE-TK-Luc reporter in serum-free DMEM containing Lipofectamine2000 (Life Technologies, Washington, DC). Total transfected DNA was kept constant by addition of control vector. The cells were washed, incubated in phenol red-free DMEM containing 5% charcoal-stripped serum (obtained from the Tissue Culture Shared Resource) (0.2 ml/well) ± E2 (10 nM) ± the indicated compound for 24-hr, and harvested for luciferase assays. For each assay condition was tested in quadrupicate. To monitor the transfection efficiency, cultures were co-transfected with plasmid pRSV-β-gal (Promega, Madison, WI) to visualize transfected cells by X-gal staining.

[2] = target: T1, estrogen receptor-alpha (ER); experiment: ER activity, ERE-TK-Luc reporter, in MCF-7 cells; assay type: cell-based; design: MCF-7 cells in 24-well dishes were transfected overnight with the ERE-TK-Luc reporter plasmid; endogenous in cells; host or cells: MCF-7; conditions: for IC50: read-out: IC50 for inhibition of E2-stimulated ER activity
Experimental: as §1
The cells were then treated ± 17β-estradiol (E2, 10 nM) and with the indicated compound (@ 1 μM or 20 μM) or vehicle only (DMSO) for 24 hr and assayed for luciferase activity. Luciferase activity is expressed as a fold-change relative to the no E2 control. The data shown are representative of three independent experiments.
as §2

[3] = body weight and signs of acute toxicity in tumor-bearing Balb/c nude mice; assay type: in vivo; conditions: 5, 10 or 20 mg/kg intraperitoneally every other day, 21-day study interval
Experimental: For these studies we used LCC9 cells grown as subcutaneous tumors in Balb/c nude mice. To improve water solubility, the compound tested (NSC 35446) was prepared as the hydrochloride salt, as described in the Methods section. The mice were dosed intraperitoneally with vehicle (control) or NSC 35446 hydrochloride every other day at 5, 10, or 20 mg/kg. Treatments were initiated when the tumors reached 150-200 mm^3. […] For most time points except the earliest, differences in size between the treated and control tumors were significant (P < 0.05, ANOVA, Tukey's multiple comparison test). There appeared to be some delay in tumor growth at the 5 mg/kg dose; but by day 21, the treated tumors were approaching the control tumors in size. The T/C ratios (ie., ratios of the changes in volume of treated tumors to that of control tumors) on day-21 were: 0.77 (5 mg/kg), 0.24 (10 mg/kg), and 0.15 (20 mg/kg).
Athymic Balb/c nude mice were purchased from Charles River. Mice were housed 5 per cage with microisolater tops and provided food (Furina mice chow) and water ad libitum. The light cycle was regulated automatically (12 hours light/dark cycle) and temperature 23±1°C. Animals were allowed to acclimate to this environment for one week prior to usage. […] The tumor size of each mouse was measured by caliper and calculated by the formula: length × width × width/2 and the body weight was recorded.

LCC9 tumor xenografts = experiment: LCC9 tumor xenograft growth in Balb/c nude mice; assay type: in vivo
Experimental: Figure 13 Compound NSC 35446 hydrochloride salt inhibits the growth of LCC9 breast cancer xenografts in athymic nude mice Experiments were performed as described in the Methods and Results sections. The effects of the compound administered intraperitoneally every other day at 5 mg/kg A., 10 mg/kg B., and 20 mg/kg C. are shown and compared with that of vehicle only (control, CT). Values of tumor volume are means ± SDs for N=5 mice per group. Athymic Balb/c nude mice were purchased from Charles River. Mice were housed 5 per cage with microisolater tops and provided food (Furina mice chow) and water ad libitum. The light cycle was regulated automatically (12 hours light/dark cycle) and temperature 23±1°C. Animals were allowed to acclimate to this environment for one week prior to usage. The Georgetown University Animal Care and Use Committee approved all animal studies in accordance with NIH guidelines. The stock solution of NSC 35446 hydrochloride was dissolved in DMSO at 200 mg/ml. The working solution was prepared using 10% Kolliphor ELP (Sigma-Aldrich), 3% PEG400 (Hampton Research, HR2-603); and 87% PBS to give a 1 mg/ml solution. Female Balb/c nude mice (18-22g) were injected with LCC9 cells (3 × 10^6 cells in a volume of 0.3 ml) in the subcutaneous tissue of the right axillary region. The mice were randomly sorted into groups with N=5 mice per group; and treatments were initiated when the tumors reached 150-200 mm^3. The tumor-bearing mice were given intraperitoneal injections of vehicle only (control), 5 mg/kg, 10 mg/kg, or 20 mg/kg of NSC 35446 hydrochloride every other day. The tumor size of each mouse was measured by caliper and calculated by the formula: length × width × width/2 and the body weight was recorded.

[4] = MTT assay of cell viability; assay type: cell-based; conditions: human, MCF-7 cells, 24-hr exposure, relative to untreated control
Experimental: Figure 3 Cytotoxicity and specificity of compounds A., B. Subconfluent proliferating cells were incubated with the indicated compound at the indicated concentration for 24-hr and then harvested for MTT dye reduction assays. Cell viability values (relative to untreated control cells) are means ± SEMs of 10 replicate wells. C., D. Subconfuent proliferating T47D cells were transfected overnight with the MMTV-Luc reporter (0.25 μg per well in 24-well dishes), washed, and allowed to recover for several hr in fresh medium. The cells were then treated with a synthetic progestin (R5020, 10 nM) plus the indicated compound at the indicated concentration for 24 hr and then harvested for luciferase assays. Luciferase activity is expressed relative to the MMTV-Luc control (no agents added) (panel A) or as a percentage of the +R5020 positive control (panel B). Values are means ± SEMs of four replicate wells. The data shown in each panel are representative of three independent experiments.
Assays were performed as described before. After the indicated treatment, cells in 96-well dishes were solubilized and assayed for MTT dye reduction. Cell viability was expressed as the amount of dye reduction relative to untreated control cells. and calculated as means ± SEMs for 10 replicate wells.

[5] = MCF7, MCF-7, E2 10 nM, compound 1 μM, 24 hr, read-out: inhibition of E2-stimulated ER activity at 1 μM

Compound: C[C@]12CC[C@@H]3c4ccc(O)cc4CC[C@H]3[C@@H]1CC[C@@H]2O [E2, 17β-estradiol, reference compound]
effect on LCC9 cell growth, single agent (LCC9 cells): Neither E2 nor Tam significantly altered growth of LCC9

Compound: c1ccc2c(c1)-c1ccccc1C2N1CC2CCC(CC2)C1 [88999-U/1]
IC50 [1]: ≤ 1000 nM
inhibition at 1 µM [2, 5]: ≥ 50%
IC50 ([2]; MCF-7, E2 10 nM, 24 hr): ≤ 1000 nM

Compound: O=C(CC(c1ccccc1)N1CCCCC1)c1ccccc1 (centres unmarked) [NSC 35446 hydrochloride, 1,3-diphenyl-3-(piperidin-1-yl)propan-1-one]
body weight and signs of acute toxicity [3]: No significant changes in body weight or obvious signs of acute toxicity
T/C ratio (change in volume of treated tumors to control tumors) on day-21 (LCC9 tumor xenografts; 5 mg/kg intraperitoneally every other day): 0.77
T/C ratio (change in volume of treated tumors to control tumors) on day-21 (LCC9 tumor xenografts; 10 mg/kg intraperitoneally every other day): 0.24
T/C ratio (change in volume of treated tumors to control tumors) on day-21 (LCC9 tumor xenografts; 20 mg/kg intraperitoneally every other day): 0.15
effect on LCC9 tumor growth (LCC9 tumor xenografts; intraperitoneally every other day, 21-day study): efficacious at the 10 mg/kg and 20 mg/kg doses in slowing tumor growth or causing tumor stasis

IC50 [1]: 30000 nM
inhibition at 1 µM [2, 5]: ≥ 50%
IC50 ([2]; MCF-7, E2 10 nM, 24 hr): ≤ 1000 nM
Compound: Sc1ccc2ccccc2c1CNCc1ccccc1 [81747-N/1]
viability at 24 h, 1 µM [4]: 100%
viability at 24 h, 20 µM [4]: > 90%

Compound: CC(C)=CC1C(COC(=O)c2cc3c(cc2Cl)OCO3)C1(C)C (centres unmarked) [48693-K/1]
IC50 [1]: 4000 nM
viability at 24 h, 1 µM [4]: 100%
viability at 24 h, 20 µM [4]: > 90%
inhibition at 1 µM ([2]; MCF7, read-out: inhibition of E2-stimulated ER activity at 1 μM): ≥ 50%
IC50 ([2]; MCF-7, E2 10 nM, 24 hr): ≤ 1000 nM

Compound: CC/C(=C(\c1ccccc1)c1ccc(OCCN(C)C)cc1)c1ccccc1 [Tam, Tamoxifen, reference compound]
effect on LCC9 cell growth, single agent (LCC9 cells): Neither E2 nor Tam significantly altered growth of LCC9

IC50 [1]: ≤ 1000 nM
IC50 ([2]; MCF-7, E2 10 nM, 24 hr): ≤ 1000 nM
inhibition of E2-stimulated ER activity at 1 μM ([2]; MCF-7, E2 10 nM, compound 1 μM, 24 hr): ≥ 50%
Compound: OCC(CCc1c[nH]c2ccccc12)c1c[nH]c2ccccc12 (centres unmarked) [372127-T/1]
